{"source": "patent EP0863769B1", "about": "(priority 1996, dated 1998)", "biological_target": "A/England/12/64", "format": "binding, Influenza Viren", "conditions": "read-out: Affinität der Bindung an Virus, Kaff", "data": [{"substance": "Poly-N-(2-Hydroxyethyl)-acrylamid mit 20% mol. 6SLN [6SLN-PAA]", "values": [{"measurement": "Kd", "value": 100, "unit": "nM"}]}]}
